Publication PMC8294567, “Associations between plasma nucleoside reverse transcriptase inhibitors concentrations and cognitive function in people with HIV” (PLoS ONE, 2021)
Where a name gives a salt, the structure may show the parent alone.

Experiments:
[1] = Plasma NRTI concentrations and population PK parameters (POPPY study)
Protocol: (§1) NRTI concentrations were measured by a validated method on ultra-performance liquid chromatography (ACQUITY, Waters) in plasma samples collected at study baseline. Briefly, 200 μL of plasma was subjected to solid phase extraction (MCX cartridge, Waters) and the elutants were dried under nitrogen stream before being re-constituted in 50 μL of water. The NRTI drugs were separated using a C18 BEH column (1.7 μm, 2.1 mm x 100 mm, Waters). For each of the four NRTIs, population PK models were determined using nonlinear mixed effects (NONMEM v.7.3) using the $PRIOR subroutine to stabilise the models and aid partition of inter-individual and residual variabilities. The impact of covariates on antiretroviral apparent oral clearance was evaluated. […] Model fit was assessed by statistical and graphical methods.

[2] = human, in vivo
Protocol: as §1, with “methods. A decrease in the minimal objective function value (-2*log likelihood) of at least 3.84 units (corresponding to a p-value<0.05) was required to accept a model with an extra parameter. Once significant covariates were incorporated, a backwards elimination process was performed and biologically plausible covariates generating an increase in the objective function value of at least 10.83 (i.e. p<0.001) units were retained.” for “methods.”
Continuous variables, including PK parameters and cognitive z-scores, were summarized using the median and the interquartile range (IQR); categorical variables were described using frequencies and percentages. Associations between NRTI PK parameters and cognitive z-scores were assessed using a series of rank regression models, one for each combination of cognitive domain/global score, NRTI and PK parameter (7x4x3 models). In each model, the cognitive score was considered as the dependent variable and the NRTI PK parameter as an independent variable in addition to the following confounders, selected a priori: age, gender, ethnicity, education, recreational drug use, alcohol consumption, glomerular filtration rate (estimated using the Chronic Kidney Disease Epidemiology Collaboration equation [15]), depressive symptoms (assessed via the Patient Health Questionnaire-9 [16]) use of ritonavir/cobicistat boosted protease inhibitor and use of efavirenz. […] Multivariable analyses were conducted as follows, in order to investigate associations of each PK parameter for one NRTI, independently of the concentration of the other NRTI in the regimen. […] All analyses were performed using the statistical software SAS v9.4 with p-values <0.05 considered as statistically significant.

cognitive function = details: cited from earlier work
[3] = set-up: method as in PMID 16390539; details: cited from earlier work
[4] = PWH on cART, median (IQR), from population PK model

SMILES	Ctrough [1, 4]	AUC(0-t) ([1]; human, po) [ng·h/mL]	Cmax ([1]; human, po) [ng/mL]	Eta^2, Age vs Ctrough [2]	Eta^2, Alcohol consumption vs Ctrough [2]	Eta^2, BMI vs Ctrough [2]	Eta^2, Education vs Ctrough [2]	Eta^2, Ethnicity vs Ctrough [2]	Eta^2, Gender vs Ctrough [2]	Eta^2, PHQ-9 score vs Ctrough [2]	Eta^2, Recreational drug use vs Ctrough [2]	Eta^2, Use of Efavirenz vs Ctrough [2]	Eta^2, Use of boosted PI vs Ctrough [2]	Eta^2, eGFR vs Ctrough [2]	Eta^2, Age vs AUC0-24 [2]	Eta^2, Age vs Cmax [2]	Eta^2, Alcohol consumption vs AUC0-24 [2]	Eta^2, Alcohol consumption vs Cmax [2]	Eta^2, BMI vs AUC0-24 [2]	Eta^2, BMI vs Cmax [2]	also measured
Nc1ccn([C@@H]2CS[C@H](CO)O2)c(=O)n1 [3TC, lamivudine]	3TC: 12.4 (3.0, 126.7) μg/l	9900	2400	0.101	0.005	0.002	0.084	0.021	0.002	0.015	0.014	0.041	0.039	0.230							
Nc1nc(NC2CC2)c2ncn([C@H]3C=C[C@@H](CO)C3)c2n1 [ABC, abacavir]	ABC: 2.6 (1.4, 4.6) μg/l	12700	4200	0.069	0.008	0.000	0.114	0.002	0.001	0.000	0.010	0.040	0.059	0.089	0.005	0.017	0.002	0.000	0.010	0.014	Eta^2, Education vs AUC0-24 [2]: 0.071; Eta^2, Education vs Cmax [2]: 0.033; Eta^2, Ethnicity vs AUC0-24 [2]: 0.011; Eta^2, Ethnicity vs Cmax [2]: 0.025; Eta^2, Gender vs AUC0-24 [2]: 0.036; Eta^2, Gender vs Cmax [2]: 0.034; Eta^2, PHQ-9 score vs AUC0-24 [2]: 0.000; Eta^2, PHQ-9 score vs Cmax [2]: 0.001; Eta^2, Recreational drug use vs AUC0-24 [2]: 0.027; Eta^2, Recreational drug use vs Cmax [2]: 0.009; Eta^2, Use of Efavirenz vs AUC0-24 [2]: 0.016; Eta^2, Use of Efavirenz vs Cmax [2]: 0.000; Eta^2, Use of boosted PI vs AUC0-24 [2]: 0.053; Eta^2, Use of boosted PI vs Cmax [2]: 0.008; Eta^2, eGFR vs AUC0-24 [2]: 0.039; Eta^2, eGFR vs Cmax [2]: 0.000; effect on cognitive performance (cognitive function; cohort study): beneficial effect; cognitive function after ABC initiation (cognitive function; randomized controlled trial, PWH with HIV-associated dementia): no improvement of cognitive function
Nc1nc(=O)n([C@@H]2CS[C@H](CO)O2)cc1F [FTC, emtricitabine]	FTC: 75.0 (59.0, 99.0) μg/l	10400	1100	0.099	0.001	0.000	0.013	0.005	0.000	0.004	0.025	0.005	0.005	0.083	0.157	0.189	0.000	0.000	0.000	0.000	Eta^2, Education vs AUC0-24 [2]: 0.013; Eta^2, Education vs Cmax [2]: 0.011; Eta^2, Ethnicity vs AUC0-24 [2]: 0.010; Eta^2, Ethnicity vs Cmax [2]: 0.014; Eta^2, Gender vs AUC0-24 [2]: 0.000; Eta^2, Gender vs Cmax [2]: 0.000; Eta^2, PHQ-9 score vs AUC0-24 [2]: 0.004; Eta^2, PHQ-9 score vs Cmax [2]: 0.002; Eta^2, Recreational drug use vs AUC0-24 [2]: 0.030; Eta^2, Recreational drug use vs Cmax [2]: 0.033; Eta^2, Use of Efavirenz vs AUC0-24 [2]: 0.008; Eta^2, Use of Efavirenz vs Cmax [2]: 0.008; Eta^2, Use of boosted PI vs AUC0-24 [2]: 0.008; Eta^2, Use of boosted PI vs Cmax [2]: 0.008; Eta^2, eGFR vs Cmax [2]: 0.172
CC(C)OC(=O)[C@H](C)N[P@](=O)(CO[C@H](C)Cn1cnc2c(N)ncnc21)Oc1ccccc1 [TAF, tenofovir alafenamide]																					cognitive performances on switching from TDF to TAF (cognitive function; PWH switching from TDF to TAF): no changes in cognitive performances
CC(C)OC(=O)OCOP(=O)(CO[C@H](C)Cn1cnc2c(N)ncnc21)OCOC(=O)OC(C)C [TDF, tenofovir disoproxil fumarate]				0.075	0.001	0.013	0.011	0.011	0.001	0.002	0.012	0.005	0.004	0.135	0.070	0.028	0.002	0.005	0.095	0.271	CNS penetration [3]: low CNS penetration; Eta^2, Education vs AUC0-24 [2]: 0.016; Eta^2, Education vs Cmax [2]: 0.020; Eta^2, Ethnicity vs AUC0-24 [2]: 0.007; Eta^2, Ethnicity vs Cmax [2]: 0.000; Eta^2, Gender vs AUC0-24 [2]: 0.009; Eta^2, Gender vs Cmax [2]: 0.033; Eta^2, PHQ-9 score vs AUC0-24 [2]: 0.001; Eta^2, PHQ-9 score vs Cmax [2]: 0.001; Eta^2, Recreational drug use vs AUC0-24 [2]: 0.007; Eta^2, Recreational drug use vs Cmax [2]: 0.000; Eta^2, Use of Efavirenz vs AUC0-24 [2]: 0.003; Eta^2, Use of Efavirenz vs Cmax [2]: 0.000; Eta^2, Use of boosted PI vs AUC0-24 [2]: 0.004; Eta^2, Use of boosted PI vs Cmax [2]: 0.002; Eta^2, eGFR vs AUC0-24 [2]: 0.124; Eta^2, eGFR vs Cmax [2]: 0.042
C[C@H](Cn1cnc2c(N)ncnc21)OCP(=O)(O)O [TFV, tenofovir]	TFV: 53.0 (44.0, 67.0) μg/l	2700																			Cmax [1, 4]: TFV: 0.3 (0.2, 0.3) mg/l
